Test results published in publication PMC8779831, “Enzyme-Responsive Amphiphilic Peptide Nanoparticles for Biocompatible and Efficient Drug Delivery” (Pharmaceutics, 2022).

Key:
HeLa cells [1] = test: Cellular uptake of Dox-loaded nanoparticles, confocal microscopy; type: cell-based; conditions: 1 μM, 16 h (results text; method: 2 μM, 6 h)
Method: The cellular uptake of Dox-loaded RH-(GLFG)3 nanoparticles in HeLa cells was analyzed using confocal microscopy. HeLa cells were seeded to 1.0 × 10^4 cells/well in an 8-well confocal plate and incubated for 24 h. After incubation, the cells were treated using Free Dox, DD-Dox, and LL-Dox at a final concentration of 2 μM and incubated for 6 h. The nuclei of the cells were stained with 20 μM Hoechst 33324 for 15 min. The prepared cells were observed using confocal microscopy. To understand cellular uptake in tissue, we examined 3D spheroids of HeLa cells. For the formulation of the 3D spheroids, 1.0 × 10^4 cells were seeded in a round shaped 96-well plate coated with 1% agarose and incubated for 3 days. After incubation, the cells formed a globular shaped 3D tissue. The prepared 3D spheroids were treated using Free Dox, DD-Dox, and LL-Dox at a final concentration of 1 μM. The 3D spheroid medium was changed every 2 days for the tissue growth. After 7 days, the 3D spheroids were observed using confocal microscopy.

[2] = test system: SW480 cells in zebrafish larvae; test: In vivo anticancer capability in zebrafish cancer model; conditions: micro-injection, observed 2 days after injection
Method: To examine the anticancer activity of the Dox-loaded RH-(GLFG)3 nanoparticles in vivo, we generated zebrafish cancer models using the SW480 cell line. Briefly, zebrafish eggs were incubated in a fish incubator for 2 days and dechorionated. The SW480 cells were stained using cell fluorescence tracker (cell tracker green CMFDA) for 30 min in a cell culture incubator. The labeled cells were then harvested using trypsin-EDTA and washed twice with PBS containing 10% FBS. The labeled cells were then injected into zebrafish larvae by micro-injection. The larvae were split in 96-well microplates containing TAP-water. After 2 days of incubation, Free Dox and Dox-loaded RH-(GLFG)3 nanoparticles (LL-Dox and DD-Dox) were injected into zebrafish larvae by micro-injection. After 2 days of incubation, the larvae were anesthetized using 0.04% tricaine and observed under a fluorescence microscope (Leica DMi8, Wetzlar, Germany).

[3] = Dynamic light scattering (DLS) size of peptide nanoparticles; type: physicochemical; conditions: empty peptide nanoparticles 0.5 mg/mL, Tables S1 and S2, mean ± SEM (n=3)
Method: (§1) The size of the peptide nanoparticles at concentrations of 0.5 mg/mL was analyzed by dynamic laser light scattering (DLS) with ELS-Z2 (Photal, Otsuka Electronics Co., Ltd., Otsuka, Japan) and a Nano-ZS (Malvern Instruments Ltd., London, UK). The ξ-potential of the peptide nanoparticles was measured using a Nano-ZS. To confirm their stability, the LL and DD nanoparticles were monitored using a DLS instrument every 5 days for 30 days. The morphology of the LL peptide nanoparticles was measured using a field emission scanning electron microscope (FE-SEM). Thereafter, the dried samples of peptide nanoparticles were coated with osmium and analyzed by FE-SEM (Hitachi, Tokyo, Japan) under a 5–10 kV acceleration voltage. The self-assembled structure of the peptide nanoparticles was analyzed using CD spectroscopy (J-1000, Jasco, Hachioji, Japan). The LL and DD peptide nanoparticle solutions were measured in a quartz cuvette at wavelengths of 190 to 260 nm.
(§2) Doxorubicin (Dox) was encapsulated in the RH-(GFLG)3 peptide nanoparticles to evaluate their potential as drug delivery carriers. […] The prepared Dox-loaded RH-(GFLG)3 nanoparticles (LL-Dox, LD-Dox, DL-Dox, and DD-Dox) were stored at 4 °C, and their size diameter and ξ-potential were measured using DLS and zeta instruments of Nano ZS90 (Malvern, Worcestershire, UK) to confirm the formulation of the nanostructure.

[4] = ξ-potential of peptide nanoparticles (Nano-ZS); type: physicochemical; conditions: empty peptide nanoparticles; Tables S1 and S2; mean ± SEM (n=3); in mV (unit assumed)
Method: as §1, §2

[5] = FE-SEM morphology of peptide nanoparticles; type: physicochemical; conditions: dried samples, osmium coated, 5–10 kV
Method: as §1

[6] = Storage stability of nanoparticles monitored by DLS; type: physicochemical; conditions: DLS every 5 days for 30 days at 4 °C; mean ± SEM (n = 3)
Method: as §1

[7] = Critical aggregation concentration with Nile Red probe; type: physicochemical
Method: The critical aggregation concentration (CAC) value of the RH-(GFLG)3 nanoparticles was analyzed using the hydrophobic probe Nile Red. Briefly, the peptide nanoparticles were prepared at various concentrations ranging from 0.001 to 0.3 mg/mL to make a final volume of 1 mL. Then, the prepared nanoparticle solutions were mixed with 5 μL of 40 μM Nile Red solution in ethanol to a final concentration of 0.2 μM. The samples were dried to remove the ethanol using nitrogen gas stream and incubated for 1 h at room temperature (25 °C). After incubation, prepared samples were measured using fluorescence spectroscopy (PerkinElmer, Waltham, MA, USA) at an excitation wavelength of 515 nm and emission wavelengths of 550–750 nm. The CAC of the peptide nanoparticles was analyzed by fluorescence intensity at 650 nm.

HeLa cells [8] = test: Cytotoxicity of peptide nanoparticles, WST-1 / MTT assay; type: cell-based; conditions: 24 h, highest concentration of 0.2 μg/μL, mean ± SEM (n = 3)
Method: (§3) The cytotoxicity of the RH-(GFLG)3 nanoparticles was examined using WST-1, LDH, and hemolysis assays. For the WST-1 assay, the HeLa cells were seeded to 1.0 × 10^4 cells/well in a 96-well microplate and incubated for 24 h. PEI 25kD and LL, LD, DL, and DD were prepared at various concentrations (0.025 to 0.2 μg/μL). PEI 25kD, a cationic polymer, was introduced as a positive control. After 24 h of incubation, 10 µL WST-1 was added to each well and incubated for 2 h. WST-1 formazan was measured using a VERASmax microplate reader (Molecular Devices, LLC, Sunnyvale, CA, USA) at an absorbance of 450 nm. For the LDH assay, 20% Tween-20 treated cells were examined as maximum LDH activated control to calculate the LDH activity (%) of samples. After 24 h incubation, 10 μL of the supernatant of each sample was collected and added to a working reagent containing 0.2 mM NADH and 2.5 mM sodium pyruvate in a 96-well microplate and incubated for 45 min at 37 °C. Finally, the LDH activity was quantified by measuring the absorbance at 490 nm using a microplate reader.

HeLa cells [9] = test: LDH assay (membrane damage); type: cell-based; conditions: 24 h, 0.025–0.2 μg/μL, relative to 20% Tween-20 control
Method: as §3

human RBCs = test: Hemolysis assay; type: cell-based; conditions: 0.1 and 0.2 μg/μL, 2 h at 37 °C, absorbance 450 nm, Triton X-100 0.2% as maximum
Method: The hemolysis of LL, LD, DL, and DD nanoparticles was investigated using human blood cells. PEI 25kD was introduced as a positive control. Briefly, fresh human blood was obtained from healthy volunteers. Coagulation of human blood was prevented using ethylenediaminetetraacetic acid (EDTA). The human blood was centrifuged at 5000 rpm for 5 min to separate the red blood cells (RBCs) from the serum. The isolated RBCs were washed twice using PBS and diluted to 2.0 × 10^8 cells/mL in PBS. To evaluate the hemolytic activity, Triton X-100 0.2% treated samples were used as the maximum hemolytic activity control. A 0.25 mL volume of the prepared RBCs was mixed with 0.25 mL of each sample (final concentration of 0.1 μg/μL and 0.2 μg/μL, respectively). The mixed samples were incubated for 2 h at 37 °C. After incubation, the samples were centrifuged at 5000 rpm for 5 min, and […] of the supernatant of each sample was collected. The supernatant was diluted 10-fold using PBS to a final volume of 100 μL. The prepared supernatant solution was added to a 96-well microplate and measured at 450 nm using a VERSAmax microplate reader (Molecular Devices, San Jose, CA, USA).

HeLa cells [10] = test: Cellular uptake of Nile Red-tagged nanoparticles (confocal microscopy, FACS); type: cell-based; conditions: Nile Red-tagged nanoparticles 0.2 mg/mL, 6 h confocal microscopy (16 h FACS)
Method: The cellular uptake ability of the peptide nanoparticle was analyzed using confocal microscopy (Zeiss International, Oberkochen, Germany) and fluorescence-activated cell sorting (FACS) (BD Biosciences, San Jose, CA). For confocal microscopy assays, 1.0 × 10^4 cells/well were seeded in an 8-well confocal plate and incubated for 24 h. Nile Red-tagged LL, DL, DL, and DD peptide nanoparticles were treated to a final concentration of 0.2 mg/mL, and the cells were incubated for 6 h. After incubation, the cell nuclei were stained with 20 μM Hoechst 33324 for 15 min. The prepared cells were observed using confocal microscopy. In the FACS assay, 1.0 × 10^6 cells/well were seeded in 6-well microplate and incubated for 24 h. After incubation, the Nile Red-tagged peptide nanoparticles were treated to a final concentration of 0.2 mg/mL, and cells were incubated for 16 h. After incubation, the cells were washed twice using DPBS and harvested using trypsin-EDTA. The cells were collected by centrifugation (1500 rpm, 3 min) and resuspended in 500 μL of DPBS. The prepared samples were transferred to a FACS tube and analyzed using FACS.

cathepsin B = target: T1, cathepsin B (Homo sapiens, UniProt P07858); test: Enzyme-responsiveness test with cathepsin B, MALDI-TOF MS; type: in vitro ADME; conditions: 0.02 μM cathepsin B in activation buffer, 37 °C, 6 h; versus control without enzyme
T1 construct: purchased Sigma-Aldrich (Seoul, Korea)
Method: The enzyme-responsive ability of RH-(GFLG)3 was analyzed using matrix assisted laser mass spectroscopy (MALDI-TOF, Voyager TOF Mass Spectrometer, Applied Biosystems Inc., Carlsbad, CA, USA). The LL, LD, DL, and DD peptides were treated with 0.02 μM of the enzyme cathepsin B in an activation buffer at 37 °C for 6 h. To compare enzyme-responsive ability, control groups without enzyme were treated identically in an activation buffer at 37 °C for 6 h. The prepared peptides were measured using MALDI-TOF (Voyager TOF Mass Spectrometer) in a α-cyano-4-hydroxycinnamic acid (CHCA) matrix.

HeLa cells [11] = test: Anticancer effect, MTT assay in HeLa cells; type: cell-based; conditions: HeLa, 24, 48 and 72 h, peptide without Dox
Method: (§4) The anticancer activity of Dox-loaded peptide nanoparticles in HeLa and SW480 cells was determined with an MTT assay. Cells were seeded to 1.0 × 10^4 cells/well in a 96-well microplate and incubated for 24 h. After incubation, the cells were treated using Free Dox and Dox-loaded RH-(GLFG)3 nanoparticles to a final concentration of 0.25–2 μM and incubated for 24–72 h. After incubation, the prepared samples were analyzed following the method described above. To understand the anticancer effect in tissue, 3D spheroids of HeLa cells were prepared as described above. The prepared 3D spheroids were treated with 1 μM Free Dox, DD-Dox, and LL-Dox and incubated for 1–7 days. The morphology of the 3D spheroids was observed using an objective microscope every day. After 7 days of incubation, the viability of the spheroids was analyzed using an MTT assay. The spheroids were added to the MTT solution (2 mg/mL in DPBS) and incubated for 4 h. The supernatant was removed, and 150 μL of DMSO was added to each sample. The prepared samples were measured using a micro reader (Molecular Devices, San Jose, CA, USA) at an absorbance of 570 nm.

SW480 cells = test: Anticancer effect, MTT assay in SW480 cells; type: cell-based; conditions: SW480, 24, 48 and 72 h, peptide without Dox
Method: as §4

| Compound | cellular uptake ability of Dox (HeLa cells [1]) | anticancer effect on cell tracker labelled SW480 cells (fluorescence) [2] | Hydrodynamic diameter [3] | Polydispersity index (PDI) [3] | Ξ-Potential [4] | size of globular nanostructure in FE-SEM images [5] | nanoscale diameter during storage [6] | critical aggregation concentration (CAC) ([7]; Nile Red 0.2 μM, peptide 0.001–0.3 mg/mL, 1 h at 25 °C, fluorescence ex 515 nm, intensity at 650 nm) | CAC (printed in Figure 2E) ([7]; Nile Red probe, fluorescence at 650 nm) | cytotoxicity (cell viability) (HeLa cells [8]) | LDH release (HeLa cells [9]) | hemolysis (human RBCs) | cellular uptake ability (HeLa cells [10]) | degradation by cathepsin B (peak at 1433 m/z in MALDI-TOF mass spectrum) (cathepsin B) | cytotoxicity of peptide control groups (HeLa cells [11]) | cytotoxicity of peptide control groups (SW480 cells) |
| --- | --- | --- | --- | --- | --- | --- | --- | --- | --- | --- | --- | --- | --- | --- | --- | --- |
| COc1cccc2c1C(=O)c1c(O)c3c(c(O)c1C2=O)C[C@@](O)(C(=O)CO)C[C@@H]3O[C@H]1C[C@H](N)[C@H](O)[C@H](C)O1 [Free Dox, doxorubicin] | low cellular uptake ability | low anticancer effect | – | – | – | – | – | – | – | – | – | – | – | – | – | – |
| Arg-His-(Gly-Phe-Lue-Gly)3 [LL] | – | – | 118 ± 7.7 nm | 0.245 ± 0.010 | 30.1 ± 0.4 | smaller than 100 nm | less than 200 nm | around 0.02 mg/mL | 0.02 µg/µL | negligible cytotoxicity | negligible LDH release | negligible hemolysis | higher uptake | no peak at 1433 m/z | negligible cytotoxicity | negligible cytotoxicity |
